Results on one molecule are retold here after ChEMBL document CHEMBL5543121, “Drug Repurposing of ACT001 to Discover Novel Promising Sulfide Prodrugs with Improved Safety and Potent Activity for Neutrophil-Mediated Antifungal Immunotherapy” (J Med Chem, 2024).

A short description of data set [1]: Inhibition of fungal curdlan induced PD-L1 expression in mouse neutrophils at 40 uM relative to control. It is filed as functional, Neutrophil. As to conditions: Mus musculus, Neutrophil.
Data set [2] in a line: Cytotoxicity against mouse neutrophils assessed as cell viability at 40 uM relative to control. Conditions: mouse neutrophils, read-out: Activity. It is filed as toxicity, cell-based, Neutrophil.
The nature of data set [3]: Acute toxicity in C57BL/6 mouse assessed as body weight loss at 500 mg/kg, po administered as single dose and measured every day for 14 days. As to conditions: in vivo, 336 h, time 14 day. It is filed as organism-based.
For data set [4], the target named is Signal transducer and activator of transcription 3 (Mus musculus) (UniProt P42227). Nature of the data set: Inhibition of biotinylated ACT001 probe binding to STAT3 in mouse bone marrow neutrophils at 100 uM by pulldown based Western blot analysis. The class given is cell-based. As to conditions: Neutrophil. For orientation: Immunoblotting shows a protein as a band on a membrane.

Data set [5] in a line: AUC (0 to t) in male Sprague-Dawley rat at 2 mg/kg, iv by LC-MS/MS analysis. It is filed as ADME, organism-based. As to conditions: in vivo.
Data set [6] is described as follows: Permeability of compound in PBS/EtOH (70:30) buffer incubated for 12 hrs by PAMPA-BBB assay. It is filed as ADME. Conditions: read-out: permeability. (In general: PAMPA measures passive passage across an artificial lipid membrane.)
The nature of data set [7]: Acute toxicity in C57BL/6 mouse assessed as histopathological changes in spleen at 500 mg/kg, po administered as single dose and measured after 14 days. The class given is organism-based. As to conditions: in vivo, 336 h, time 14 day.
Data set [8] in a line: Half life in male Sprague-Dawley rat at 10 mg/kg, po by LC-MS/MS analysis. The class given is ADME, organism-based. As to conditions: in vivo.
The nature of data set [9]: Acute toxicity in C57BL/6 mouse assessed as effect on ALT level in serum at 500 mg/kg, po administered as single dose and measured every day for 14 days. The class given is organism-based. As to conditions: in vivo, 336 h, time 14 day.
A further data set relates to Candida albicans. Nature of the data set: Antifungal activity against candida albicans SC5314 infected in mouse assessed as reduction in PD-L1 positive Ly6G-positive neutrophils in kidney at 200 mg/kg, po administered on day 1 and 3. It is filed as functional, organism-based. Conditions: time 1-3 day.
Data set [10] in a line: Induction of apoptosis in mouse neutrophils assessed as live cells at 40 uM incubated for 16 hrs by Annexin V-FITC/PI staining based flow cytometry analysis (reference value: 46.6%). Conditions: read-out: Activity. The class given is toxicity, cell-based, Neutrophil. In general terms: A flow cytometer gives signals particle by particle.

Each structure is given as a SMILES string. Activity calls are given as the source filed them. The calls are words filed in the database; no cut-off is given here.

Sequence of Signal transducer and activator of transcription 3 (Mus musculus) (P42227 whole entry): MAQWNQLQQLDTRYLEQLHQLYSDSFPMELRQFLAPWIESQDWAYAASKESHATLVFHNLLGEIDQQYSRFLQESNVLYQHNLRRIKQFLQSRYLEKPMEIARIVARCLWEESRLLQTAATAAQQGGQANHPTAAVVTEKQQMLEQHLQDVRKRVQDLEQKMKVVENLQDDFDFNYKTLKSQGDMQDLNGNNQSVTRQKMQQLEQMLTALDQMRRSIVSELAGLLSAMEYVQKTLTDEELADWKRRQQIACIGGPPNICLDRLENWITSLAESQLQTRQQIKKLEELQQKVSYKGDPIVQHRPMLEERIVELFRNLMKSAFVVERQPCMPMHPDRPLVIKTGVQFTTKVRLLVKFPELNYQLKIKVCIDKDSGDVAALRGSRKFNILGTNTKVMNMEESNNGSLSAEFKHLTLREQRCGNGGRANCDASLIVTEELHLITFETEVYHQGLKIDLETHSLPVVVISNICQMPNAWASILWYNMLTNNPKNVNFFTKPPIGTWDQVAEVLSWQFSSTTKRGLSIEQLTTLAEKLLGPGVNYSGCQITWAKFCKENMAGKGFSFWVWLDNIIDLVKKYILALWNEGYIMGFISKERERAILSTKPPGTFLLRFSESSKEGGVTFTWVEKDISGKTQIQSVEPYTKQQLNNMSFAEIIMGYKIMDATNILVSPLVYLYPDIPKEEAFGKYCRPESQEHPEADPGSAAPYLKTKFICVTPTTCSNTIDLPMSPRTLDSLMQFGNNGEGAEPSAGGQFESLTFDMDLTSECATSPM

For `C[C@@]1(O)CC[C@]23O[C@@]2(C)CC[C@@H]2[C@H](OC(=O)[C@H]2CS(=O)(=O)c2c(Cl)cccc2Cl)[C@@H]13`, the inhibition at 40 µM in data set [1] was determined as 80.2%. In addition, the viability at 40 µM in data set [2] was 81.5%. Besides, the Activity entry in data set [3], in data set [7] and in data set [9] was “Non-Toxic” throughout. Further, the inhibition result in [4] is “Active”. The AUC(0-t) in [5] turned out to be 73.9 ng·h/mL. For the same molecule, the Papp at 12 h in data set [6] was 1.22 ×10⁻⁶ cm/s. The same molecule had a half-life in data set [8] of 1.46 h. For the same molecule, in the data set on Candida albicans, the result was Active. The viability at 16 h, 40 µM in data set [10] was 38%.

The term inhibition denotes how much of the control response was suppressed. The AUC(0-t) is exposure summed from dosing to a finite time, without extrapolation to infinity. A high value points to more exposure. Usually half-life stands for the time in which the quantity being followed falls by half. High values mean slow decline, low ones rapid decline.
